Data on 15 molecules can be found in patent US7812142B2, “Pentose derivatives as anti-hyperglycemic drugs” (Yissum Research Development Company of the Hebrew …, priority 2002, dated 2010).

One assay has as its system 3T3-L1 adipocytes. Description: Screening of methylated xylose derivatives, dGlc uptake assay (Table 1). The settings on record: Mean±SEM (n=3-6); for HEXOSE UPTAKE (Percent of Control) Without Insulin: 3T3-L1 adipocytes 24 hr at 20 mM glucose, test compounds 0.1-20.0 mM, 2-45 hr; for HEXOSE UPTAKE (Percent of Control) With Insulin: as E1, 500 nM insulin 30 min prior to uptake assay. The format is cell-based. An excerpt: There are five carbon atoms in xylose available for chemical modifications. Each of these atoms was methylated by modifications of published chemical procedures [Bollenback, G. N. (1963) In Methods in carbohydrate chemistry, vol. 2 (Whistler, R. L. and Wolfrom, M. L., eds.), pp. 326-331, Academic Press, New York; Bowering, W. and Timel, T. (1958) Can. J. Chem. 36, 283-285; Levine, P. and Raymomd, A. (1933) J. Biol. Chem. 102, 331-344; Takeo, K. (1992) Carbohyd. Res. 224, 311-318]. All compounds were purified by HPLC and their structure verified by NMR spectroscopy. […] At the end of the incubation period the cells were taken for a standard [^3H]-2-deoxy-D-glucose uptake assay in the absence or the presence of 500 nM insulin (30 min exposure prior to the uptake assay).
3T3-L1 adipocytes and L6 myotubes were maintained for 24 hr at 20 mM glucose. Test compounds were added (0.1-20.0 mM) and the cells were incubated further for 2-45 hr. At the end of the incubation periods the cells were washed and taken for a standard [^3H]2-deoxy-D-glucose (dGlc) uptake assay. Uptake values (given for control cells) are in nmol dGlc/mg protein/min. Mean±SEM (n=3-6).
(§1) Uptake assay of the tritiated glucose analogue, 2-deoxy-D-glucose, is routinely performed as described in [Sasson, S. and Cerasi, E. (1986) J. Biol. Chem. 261, 16827-16833].

Assay [1] has as its system glucose uptake in cultured cells. Description: In vitro glucose uptake / hexose transport in cultured cells with xylose derivatives (Table 2). The format is cell-based. The settings on record: for EC50 / ECmax: EC = Effective concentration. Here is the method: Table 2 summarizes in vitro results obtained with some of these newly synthesized xylose derivatives.
as §1
All new compounds are screened and tested first in various insulin-sensitive cell cultures used routinely in the laboratory (skeletal muscle and adipose cell lines). In addition these drugs were tested in non-insulin-sensitive cells such as primary cultures of bovine and porcine vascular endothelial and smooth muscle cells. Active compounds were tested ex-vivo on isolated rat soleus muscles. All cell cultures and tissues were maintained under hyperglycemic condition prior to the addition of the test compounds. Dose-response and time-course experiments determine which of the derivatives are subsequently tested in animal models. For each potent compound the total cell content and plasma membrane abundance of GLUT-1 and GLUT-4 was determined, as described above. The same biotinylation technique was employed to determine the total and plasma membrane content of both transporters in isolated mouse or rat soleus muscles treated with potent compounds.

The test system of another assay is C2 myotubes. Description: dGlc uptake assay in C2 myotubes. It counts as cell-based, mouse. The following applies: 20 mM pentose, preconditioned with 20 mM glucose (FIG. 7). Here is the method:
The time-course of D-xylose effect in two types of skeletal muscle cells (L8 myocytes and C2 myotubes) was studied. L8 myocytes and C2 myotubes preconditioned in 20 mM glucose were incubated with 20 mM xylose. After 90 min the cells were washed and incubated with 20 mM glucose, and subjected to a deoxyglucose dGlc uptake assay (14).
The inventors have also measured the effect of different doses of D-xylose in C2 myotubes. C2 myotubes preconditioned with 20 mM glucose received fresh medium containing 20 mM glucose or increasing concentrations of D-xylose. Standard dGlc uptake assay was performed after 1 hr incubation. […] D-xylose augmented the rate of hexose transport ˜2-fold within 1-2 hr; half-maximal stimulation was observed within 20-30 min, as shown in FIG. 2.
However, in the above experiments the cells were exposed to D-xylose after removal of the conditioning glucose concentration. […] The inventors therefore added 20 mM D-xylose to C2 myotubes in the presence of 8 or 16 mM glucose and followed its effect.
It has shown before by the inventors of the present invention that deoxyglucose (dGlc) depresses the hexose transport system in myocytes and that a subsequent incubation with low (even no) glucose fails to reverse this effect of dGlc [Sasson, S et al (1997)]. The inventors have therefore measured the effect of D-xylose on rate of hexose transport following treatment with dGlc. In one experiment, C2 myotubes preconditioned with 2 mM glucose received fresh medium containing 2 mM dGlc. A portion of the cells were washed after 30 min and received 20 MM D-xylose or 2 mM D-glucose, and subjected to a dGlc uptake assay at different time points. In another experiment, L8 myocytes preconditioned with 2 mM glucose were washed and incubated with 2 mM xylose or 2 mM dGlc. A portion of the cells were washed again after 2 hr and incubated with 20 mM xylose, and subjected to a dGlc uptake assay at different time points.
as §1

A further assay concerns GLUT-4. Description: Cell surface biotinylation and western blot of GLUT-4 in L6 myotubes. The format is cell-based, rat. The procedure:
(§2) FIG. 10: Western blot depicting effect of 3-O-propyl-D-xylose (EH-114), and 1,3-O-dimethylxylopyranoside (EH-101) on the total cell content and plasma membrane abundance of GLUT-4 in the absence or presence of insulin. L6 myotubes were maintained for 48 hr at 23 mM Glucose. The cells were than washed and received fresh medium containing the indicated additions and incubated for additional […]. Insulin was added during the last 30 min of incubation before the dGlc uptake assay.
(§3) GLUT-1 and GLUT-4 mediate glucose entry into L6 myotubes. It is established that GLUT-4 is translocated effectively and rapidly to the plasma membrane upon insulin treatment. The inventors looked at the effect of 3-O-propyl-D-xylose EH-114) and 1,3-O-dimethylxylopyranoside (EH-101) on the total cell content and plasma membrane abundance of these transporters in the absence or presence of insulin. L6 myotubes were maintained at 5.0 or 23.0 mM glucose for 48 hr and EH-114 and EH-101 were present during the last 24 hr. The cells were then taken for the standard [^3H]-2-deoxy-D-glucose uptake assay and for the biotinylation procedure for determining the amount of GLUT-1 and GLUT-4 in the plasma membrane. High glucose levels decreased the hexose transport rate by ˜50%. Insulin augmented the transport nearly 2-fold in both cases. EH-114 and EH-101 increased the transport rate 2-3-fold in the absence of insulin. Together with insulin the uptake rate was increased nearly 3-fold.
Surface biotinylation of the cells was performed as previously described [Sasson et al (1997), Diabetologia, 40, 30-398].

Another assay concerns L6 myotubes. Description: dGlc uptake assay in L6 myotubes. The format is cell-based, rat. The procedure: as §2
FIG. 11A: Effect of LY-249002, a PI3-kinase inhibitor, on insulin, D-xylose, EH-101 and EH-114-mediated glucose uptake. L6 myotubes were treated as described in the legend to FIG. 10. The glucose concentration in the culture medium was 23.0 mM. The concentration of LY-294002 was 60 μM. At the end of incubation the cells were taken for the standard dGlc uptake assay. Mean±SEM, n=3.
as §3
The inventors also tested the hypothesis that the active D-xylose derivatives augment the hexose transport capacity in L6 myotubes by translocating GLUT-4 to the plasma membrane not via the common insulin-regulated pathway. For this experiment, a selective inhibitor of the enzyme PI3-kinase, LY-249002, which is a key enzyme in the cellular transduction mechanism of insulin, was utilized. […] These findings also agree well with the longer onset of action of these derivatives as compared to the rapid action of insulin. Similar results were obtained when LY-249002 was present together with the derivatives throughout the entire incubation period.
as §1

A further assay has as its system glucose transporter. The assay is described as follows: [3H]dGlc uptake with unlabeled carbohydrates (affinity for the glucose transporter) in C2 myotubes. The settings on record: 0.1 mM dGlc, increasing unlabeled carbohydrate. It counts as cell-based, mouse. The procedure: FIG. 6: Lack of affinity of D-xylose for the glucose transporters. C2 myotubes preconditioned with 20 mM glucose were subjected to [^3H]dGlc uptake assay (0.1 mM dGlc) with increasing concentrations of unlabeled dGlc, glucose or xylose. The unlabeled carbohydrates were added to the [^3H]dGlc solution in the uptake assay.
The inventors have also determined the affinity of D-xylose for the glucose transporter. C2 myotubes preconditioned with 20 mM glucose were subjected to [^3H]dGlc uptake assay (0.1 mM dGlc) in the presence of increasing concentrations of unlabeled dGlc, glucose or xylose. The results of these experiments are depicted in FIG. 6. The affinity of D-xylose for the glucose transporter is 2 orders of magnitude lower compared to glucose. The final concentration of dGlc in the assay was 0.1 mM.

For the molecule `COC1OC[C@@H](OC)[C@H](OC)[C@H]1OC` (stereo partly shown) [1,2,3,4-O-tetramethyl xylopyranoside], in the assay with 3T3-L1 adipocytes, the “HEXOSE UPTAKE (Percent of Control) Without Insulin” value is 95 ± 7% of Control and the “HEXOSE UPTAKE (Percent of Control) With Insulin” value is listed as 104 ± 8% of Control.

As for `COC1OC[C@@H](O)[C@H](O)[C@H]1O` (stereo partly shown) [1-O-methyl xylopyranoside], in assay [1], the “Fold Increase of Glucose Uptake” value was 1.5 fold; the midpoint of the response, the EC50, lay at 6 mM; the ECmax came to 10 mM. For the same molecule, in the assay with 3T3-L1 adipocytes, the “HEXOSE UPTAKE (Percent of Control) Without Insulin” value is 154 ± 4% of Control and the “HEXOSE UPTAKE (Percent of Control) With Insulin” value is reported as 156 ± 24% of Control.

With `CO[C@H]1C(O)OC[C@@H](O)[C@@H]1O` (stereo partly shown) [2-O-methyl xylopyranose], in the assay on 3T3-L1 adipocytes, the “HEXOSE UPTAKE (Percent of Control) Without Insulin” value is listed as 63 ± 7% of Control and the “HEXOSE UPTAKE (Percent of Control) With Insulin” value is 73 ± 15% of Control.

For `CCO[C@@H]([C@H](O)CO)[C@@H](O)C=O` [3-O-ethyl D-xylose], in assay [1], the “Fold Increase of Glucose Uptake” value amounted to 2.3 fold; the midpoint of the response, the EC50, lay at 1.3 mM; the ECmax turned out to be 4 mM.

Turning to `CO[C@H]1[C@H](O)COC(O)[C@@H]1O` (stereo partly shown) [3-O-methyl xylopyranose], in assay [1], the “Fold Increase of Glucose Uptake” value was found to be 2.0 fold, the EC50 came to 2 mM and the ECmax is 4 mM. Moreover, in the assay with 3T3-L1 adipocytes, the “HEXOSE UPTAKE (Percent of Control) Without Insulin” value is given as 201 ± 30% of Control and the “HEXOSE UPTAKE (Percent of Control) With Insulin” value is listed as 159 ± 7% of Control.

Regarding `CO[C@@H]1COC(O)[C@H](O)[C@H]1O` (stereo partly shown) [4-O-methyl xylopyranose], in the assay with 3T3-L1 adipocytes, the “HEXOSE UPTAKE (Percent of Control) Without Insulin” value is reported as 72 ± 112% of Control and the “HEXOSE UPTAKE (Percent of Control) With Insulin” value is reported as 111 ± 2% of Control.

Regarding `COC[C@H]1OC(O)[C@H](O)[C@H]1O` (stereo partly shown) [5-O-methyl xylofuranose], in the assay on 3T3-L1 adipocytes, the “HEXOSE UPTAKE (Percent of Control) Without Insulin” value is given as 70 ± 5% of Control and the “HEXOSE UPTAKE (Percent of Control) With Insulin” value is on record as 53 ± 22% of Control.

For the molecule `O=C[C@@H](O)[C@@H](O)[C@H](O)CO` [D-lyxose], the “effect of pentoses on the rate of hexose transport” value with C2 myotubes is recorded as “to a lesser extent”.

As to `O=C[C@H](O)[C@H](O)[C@H](O)CO` [D-ribose], the “effect of pentoses on the rate of hexose transport” value in the assay with C2 myotubes is “to a lesser extent”.

Regarding `COC(OC)[C@@H]1OC(c2ccccc2)O[C@@H]2COC(c3ccccc3)O[C@@H]21` (stereo partly drawn) [EH-3, 2,4:3,5-di-O-benzylidene-D-xylose-dimethylacetal], in assay [1], the “Fold Increase of Glucose Uptake” value was found to be 1.7 fold, the EC50 turned out to be 0.125 mM and the ECmax worked out at 0.3 mM.

As to `COC1OC[C@@H](O)[C@H](OC)[C@H]1O` (stereo partly shown) [EH-101, 1,3-O-dimethyl xylopyranoside], in assay [1], the “Fold Increase of Glucose Uptake” value was determined as 3.0 fold, the EC50 was found to be 2 mM and the ECmax is 4 mM. Further, in assay [1] (after being washed from cell cultures), the “duration of activity following removal from the culture media” value is 24 h. For the same molecule, in the assay with GLUT-4 (L6 cells exposed to 23.0 mM glucose (FIG. 10)), the “total cell content of GLUT-4” value is “increased the total content of the transporter”. Also, the “translocation of GLUT-4 to the plasma membrane” value in the assay with GLUT-4 (L6 myotubes, xylose derivatives in the absence of insulin, insulin 500 nM (FIG. 10)) was “induced significant translocation of GLUT-4 to the plasma membrane”. Also, in the assay on 3T3-L1 adipocytes, the “HEXOSE UPTAKE (Percent of Control) Without Insulin” value was 267 ± 57% of Control and the “HEXOSE UPTAKE (Percent of Control) With Insulin” value was 174 ± 28% of Control. Besides, in the assay with L6 myotubes (60 μM inhibitor, 23.0 mM glucose (FIG. 11A), EH-40 data not shown), the “effect of PI3-kinase inhibitor LY-249002 on the substance's stimulation of hexose transport” value is recorded as “failed to affect”. Besides, the “increase of uptake rate together with insulin” value in the assay with L6 myotubes (L6 myotubes, compound during last 24 hr plus insulin) is given as roughly 3 fold.

`CCS[C@@H]1OC[C@@H](O)[C@H](O)[C@H]1O` [EH-143, β-ethylthio-D-xylopyranoside]: the “hexose transport augmenting activity of thioalkyl derivatives” value in assay [1] was “hexose transport augmenting activity”.

For `CCSC(SCC)C1OC(c2ccccc2)OC(CO)C1OC` [EH-169, 3-O-methyl-2,4-O-benzylidene-D-xylose-diethyl-dithioacetal], the “increase of [3H]-2-deoxy-D-glucose uptake” value in the assay with L6 myotubes (60 μM) was 1.8 fold; with L6 myotubes (120 μM), 2 fold.

For the molecule `O=CC[C@@H](O)[C@H](O)[C@H](O)CO` [dGlc, 2-deoxy-D-glucose], the “competition with [3H]dGlc” value with glucose transporter is “competed markedly and similarly”.

For the molecule “di-4-(1-O-methyl-xylopyranoside)-phosphoryl-PEG-O-methyl [1-O-methyl D-xylose-PEG]”, in assay [1], the “Fold Increase of Glucose Uptake” value is recorded as 1.9 fold, the EC50 is 0.3 mM and the ECmax was determined as 0.6 mM.

Usually EC50 stands for the concentration giving half of the maximal effect. A higher EC50 goes with a less potent agent.
